As usually defined, the IC50 is the concentration that inhibits the measured activity by half. Lower therefore signals higher potency.

The text below walks through data of patent publication US10123993B2, “Cyclic ureas as inhibitors of rock” (BRISTOL-MYERS SQUIBB COMPANY, priority 2015, dated 2018).

Structures can show the parent of a compound that is named as a salt.

ROCK2, sequence (O75116 whole entry, species assumed): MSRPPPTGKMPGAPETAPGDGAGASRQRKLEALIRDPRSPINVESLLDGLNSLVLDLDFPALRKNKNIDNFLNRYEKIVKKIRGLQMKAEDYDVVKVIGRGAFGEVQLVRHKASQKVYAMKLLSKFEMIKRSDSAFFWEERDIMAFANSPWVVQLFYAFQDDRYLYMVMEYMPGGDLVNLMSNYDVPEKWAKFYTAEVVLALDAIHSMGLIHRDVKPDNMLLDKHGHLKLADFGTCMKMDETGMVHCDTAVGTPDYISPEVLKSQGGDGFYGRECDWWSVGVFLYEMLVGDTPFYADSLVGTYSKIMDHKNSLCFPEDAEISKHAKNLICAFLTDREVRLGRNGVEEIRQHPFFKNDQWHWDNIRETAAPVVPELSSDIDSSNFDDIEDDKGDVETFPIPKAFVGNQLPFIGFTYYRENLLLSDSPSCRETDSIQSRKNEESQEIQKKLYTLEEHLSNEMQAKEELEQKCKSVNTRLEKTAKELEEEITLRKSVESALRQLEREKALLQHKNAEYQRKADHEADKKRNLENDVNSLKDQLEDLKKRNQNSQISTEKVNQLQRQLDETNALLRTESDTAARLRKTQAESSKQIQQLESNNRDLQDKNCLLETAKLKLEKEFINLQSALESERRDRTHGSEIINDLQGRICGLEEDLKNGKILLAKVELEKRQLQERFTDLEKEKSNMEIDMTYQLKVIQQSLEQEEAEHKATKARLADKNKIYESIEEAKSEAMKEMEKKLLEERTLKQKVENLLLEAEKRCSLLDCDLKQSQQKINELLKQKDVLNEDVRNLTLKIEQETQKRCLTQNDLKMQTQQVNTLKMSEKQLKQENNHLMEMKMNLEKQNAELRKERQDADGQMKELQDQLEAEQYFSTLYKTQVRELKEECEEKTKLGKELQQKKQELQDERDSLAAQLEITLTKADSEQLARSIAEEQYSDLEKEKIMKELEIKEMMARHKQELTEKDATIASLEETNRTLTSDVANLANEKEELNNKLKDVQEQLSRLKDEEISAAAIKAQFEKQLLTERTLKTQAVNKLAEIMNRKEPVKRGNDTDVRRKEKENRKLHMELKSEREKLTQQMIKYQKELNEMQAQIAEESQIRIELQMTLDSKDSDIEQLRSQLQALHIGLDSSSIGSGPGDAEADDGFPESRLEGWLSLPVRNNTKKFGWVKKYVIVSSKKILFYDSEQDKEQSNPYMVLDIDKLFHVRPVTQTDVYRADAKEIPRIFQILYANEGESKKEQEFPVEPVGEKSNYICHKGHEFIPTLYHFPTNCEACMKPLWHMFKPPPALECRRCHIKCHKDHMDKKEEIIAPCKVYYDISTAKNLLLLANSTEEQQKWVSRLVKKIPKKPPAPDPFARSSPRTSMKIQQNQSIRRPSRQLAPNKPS

This assay deals with ROCK2 (Homo sapiens, UniProt O75116). Nature of the assay: ROCK2 kinase inhibition assay (Caliper LABCHIP, FITC peptide substrate). In kind it is biochemical. As to conditions: 5 μM ATP, 1.5 μM peptide substrate; value ranges. The essentials:
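Rho kinase with 5 μM ATP and 1.5 μM FITC-AHA-AKRRRLSSLRA-OH peptide in HEPES pH 7.5, 20 mM MgCl2, 0.015% Brij-35, 4 mM DTT, DMSO <2%. EDTA stop; phospho and non-phospho peptide separated on LabChip. IC50 from dose-response fit.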
In turn, `COc1cccc([C@H](C)N2CCN(c3ccc(-c4cn[nH]c4)cc3)C2=O)c1` [Example 456, (S)-1-(4-(1H-pyrazol-4-yl)phenyl)-3-(1-(3-methoxyphenyl)ethyl)imidazolidin-2-one] came in with an IC50 of 20.1 to 200 nM. With `CCc1nc(-n2ccn(Cc3cc(F)cc(OC)c3)c2=O)ccc1-c1cn[nH]c1` [Example 172, 1-(6-ethyl-5-(1H-pyrazol-4-yl)pyridin-2-yl)-3-(3-fluoro-5-methoxy-benzyl)-1H-imidazol-2(3H)-one] the figure was 2.1 to 20 nM.

As to `COc1cccc(C(C)n2ccn(-c3ccc(-c4ccnc(F)c4)cc3)c2=O)c1` (single isomer, unassigned) [Example 327, 1-(4-(2-fluoropyridin-4-yl)phenyl)-3-(1-(3-methoxyphenyl)ethyl)-1H-imidazol-2(3H)-one], the 50% inhibitory concentration (IC50) fell in the range of 200 to 2000 nM.

Compound `COc1cccc(C(C)n2ccn(-c3ccc(-c4ccnc5[nH]ccc45)cc3)c2=O)c1` (single isomer, unassigned) [Example 326, 1-(4-(1H-Pyrrolo[2,3-b]pyridin-4-yl)phenyl)-3-(1-(3-methoxyphenyl)ethyl)-1H-imidazol-2(3H)-one] had an IC50 of 2.1 to 20 nM. With `O=c1n(Cc2cccc(F)c2F)ccn1-c1ccc(-c2cn[nH]c2)cc1` [Example 406, 1-(4-(1H-pyrazol-4-yl)phenyl)-3-(2,3-difluorobenzyl)-1H-imidazol-2(3H)-one] the figure was 20.1 to 200 nM; with `CC1(C)CN(c2ccc(-c3cn[nH]c3)cc2)C(=O)N1Cc1cccc(OC(F)F)c1` [Example 142, 1-(4-(1H-pyrazol-4-yl)phenyl)-3-(3-(difluoro-methoxy)-benzyl)-4,4-dimethyl-imidazolidin-2-one], 20.1 to 200 nM. With `COc1cc(F)ccc1Cn1ccn(-c2ccc(-c3cn[nH]c3)c(OC)n2)c1=O` [Example 383, 1-(4-fluoro-2-methoxybenzyl)-3-(6-methoxy-5-(1H-pyrazol-4-yl)pyridin-2-yl)-1H-imidazol-2(3H)-one] the figure was 20.1 to 200 nM.

Compound `CC(c1ccccc1)n1ccn(-c2ccc(-c3cn[nH]c3)cc2)c1=O` (centres unmarked) [Example 332, 1-(4-(1H-pyrazol-4-yl)phenyl)-3-(1-phenylethyl)-1H-imidazol-2(3H)-one] gave an IC50 of 20.1 to 200 nM. `COc1cccc(C(C)N2C(=O)N(c3ccc(-c4cn[nH]c4)cc3)CC2(C)C)c1` (single isomer, unassigned) [Example 146, 1-(4-(1H-pyrazol-4-yl)phenyl)-3-(1-(3-methoxy-phenyl)-ethyl)-4,4-dimethyl-imidazolidin-2-one] gave an IC50 of 20.1 to 200 nM. As for `COc1nc(-n2ccn(Cc3cccc(F)c3OC)c2=O)ccc1-c1cn[nH]c1` [Example 416, 1-(3-fluoro-2-methoxybenzyl)-3-(6-methoxy-5-(1H-pyrazol-4-yl)pyridin-2-yl)-1H-imidazol-2(3H)-one], the figure is 2.1 to 20 nM. In turn, `COc1cccc(C(C)n2ccn(-c3ccc(-c4ccncc4F)cc3)c2=O)c1` (single isomer, unassigned) [Example 387, 1-(4-(3-fluoropyridin-4-yl)phenyl)-3-(1-(3-methoxyphenyl)ethyl)-1H-imidazol-2(3H)-one] yielded a half-maximal inhibitory concentration (IC50) of 20.1 to 200 nM. As for `COc1cc(F)cc(CN2CC(=O)N(c3ccc(-c4cn[nH]c4)cc3)C2=O)c1` [Example 84, 3-(4-(1H-pyrazol-4-yl)phenyl)-1-(3-fluoro-5-methoxybenzyl)imidazolidine-2,4-dione], the figure is 20.1 to 200 nM; as for `COc1cccc(C(CC(C)(C)O)N2CCN(c3ccc(-c4cn[nH]c4)c(OC)c3)C2=O)c1` (centres unmarked) [Example 22, 1-(3-Hydroxy-1-(3-methoxyphenyl)-3-methylbutyl)-3-(3-methoxy-4-(1H-pyrazol-4-yl)phenyl)imidazolidin-2-one], 200 to 2000 nM; as for `O=C1N(Cc2cccc(F)c2)CCN1c1ccc(-c2ccnc(F)c2)cc1` [Example 51, 1-(3-fluorobenzyl)-3-(4-(2-fluoropyridin-4-yl)phenyl)imidazolidin-2-one], 200 to 2000 nM. With `COc1ccc(F)c(CN2CCN(c3ccc(-c4ccncc4)c(OC)c3)C2=O)c1` [Example 58, 1-(2-fluoro-5-methoxybenzyl)-3-(3-methoxy-4-(pyridin-4-yl)phenyl)imidazolidin-2-one, TFA] the figure was 200 to 2000 nM; with `COc1cc(C(C)N2CCN(c3ccc(-c4cn[nH]c4)c(OC)n3)C2=O)ccc1F` (single isomer, unassigned) [Example 231, 1-(1-(4-fluoro-3-methoxyphenyl)ethyl)-3-(6-methoxy-5-(1H-pyrazol-4-yl)pyridin-2-yl)imidazolidin-2-one], 20.1 to 200 nM; with `COc1cccc(C(CO)N2CCN(c3ccc(-c4cn[nH]c4)c(C)n3)C2=O)c1` (single isomer, unassigned) [Example 161, 1-(2-hydroxy-1-(3-methoxy-phenyl)ethyl)-3-(6-methyl-5-(1H-pyrazol-4-yl)pyridin-2-yl)imidazolidin-2-one], 2.1 to 20 nM.

With `O=c1n(Cc2ccc(F)cc2)ccn1-c1ccc(-c2cn[nH]c2)cc1` [Example 67, 1-(4-(1H-pyrazol-4-yl)phenyl)-3-(4-fluorobenzyl)-1H-imidazol-2(3H)-one], the IC50 fell in the range of 20.1 to 200 nM. With `COc1cccc(CN2CCN(c3ccc(-c4cn[nH]c4)c(OC)c3)C2=O)c1` [Example 7, 1-(3-Methoxy-4-(1H-pyrazol-4-yl)phenyl)-3-(3-methoxybenzyl)imidazolidin-2-one] the figure was 2.1 to 20 nM; with `CC1(C)CN(c2ccc(-c3cn[nH]c3)cn2)C(=O)N1Cc1cccc(OCC2CC2)c1` [Example 452, 1-(5-(1H-pyrazol-4-yl)pyridin-2-yl)-3-(3-(cyclopropylmethoxy)benzyl)-4,4-dimethylimidazolidin-2-one], 2.1 to 20 nM; with `COc1cccc(CN2CCN(c3ccc(-c4ccncc4F)c(OC)n3)C2=O)c1` [Example 316, 1-(3′-Fluoro-2-methoxy-[3,4′-bipyridin]-6-yl)-3-(3-methoxybenzyl)imidazolidin-2-one], 2.1 to 20 nM.

In turn, `O=C1N(Cc2ccccc2)CCN1c1ccc(-c2ccncc2F)cc1` [Example 52, 1-benzyl-3-(4-(3-fluoropyridin-4-yl)phenyl)imidazolidin-2-one] registered an IC50 of 20.1 to 200 nM. In turn, `COc1cc(N2C(=O)CN(Cc3cccc(F)c3)C2=O)ccc1-c1cn[nH]c1` [Example 90, 1-(3-fluorobenzyl)-3-(3-methoxy-4-(1H-pyrazol-4-yl)phenyl)imidazolidine-2,4-dione] yielded an IC50 of 20.1 to 200 nM. With `COc1cc(F)cc(C(C)n2ccn(-c3ccc(-c4cn[nH]c4)cc3)c2=O)c1` (single isomer, unassigned) [Example 367, 1-(4-(1H-pyrazol-4-yl)phenyl)-3-(1-(3-fluoro-5-methoxyphenyl)ethyl)-1H-imidazol-2(3H)-one] the figure was 20.1 to 200 nM; with `COc1nc(-n2ccn(Cc3cc(F)ccc3F)c2=O)ccc1-c1cn[nH]c1` [Example 415, 1-(2,5-difluorobenzyl)-3-(6-methoxy-5-(1H-pyrazol-4-yl)pyridin-2-yl)-1H-imidazol-2(3H)-one], 2.1 to 20 nM.

In the case of `COc1cccc(C(C)N2CCN(c3ccc(-c4cn[nH]c4)c(C)c3)C2=O)c1` (single isomer, unassigned) [Example 192, 1-(1-(3-methoxy-phenyl)-ethyl)-3-(3-methyl-4-(1H-pyrazol-4-yl)phenyl) imidazolidin-2-one], the IC50 was 200 to 2000 nM. With `COC(=O)C1CN(Cc2cccc(F)c2)C(=O)N1c1ccc(-c2cn[nH]c2)cc1` (centres unmarked) [Example 34, Methyl 3-(4-(1H-pyrazol-4-yl)phenyl)-1-(3-fluorobenzyl)-2-oxoimidazolidine-4-carboxylate] the figure was 20.1 to 200 nM. With `CCc1nc(-n2ccn(C(C)c3cc(F)cc(OC)c3)c2=O)ccc1-c1cn[nH]c1` (single isomer, unassigned) [Example 362, 1-(6-ethyl-5-(1H-pyrazol-4-yl)pyridin-2-yl)-3-(1-(3-fluoro-5-methoxyphenyl)ethyl)-1H-imidazol-2(3H)-one] the figure was under 2 nM; with `CCc1nc(N2CCN(Cc3ccc(F)c(OC)c3)C2=O)ccc1-c1cn[nH]c1` [Example 170, 1-(6-ethyl-5-(1H-pyrazol-4-yl)pyridin-2-yl)-3-(4-fluoro-3-methoxy-benzyl) imidazolidin-2-one], 2.1 to 20 nM; with `O=C1N(Cc2ccccc2)CC(CO)N1c1ccc(-c2cn[nH]c2)cc1` (centres unmarked) [Example 30, 3-(4-(1H-Pyrazol-4-yl)phenyl)-1-benzyl-4-(hydroxymethyl)imidazolidin-2-one], 20.1 to 200 nM. With `COc1cccc(CN2C(=O)N(c3ccc(-c4cn[nH]c4)cc3)CC2C(C)(C)O)c1` (single isomer, unassigned) [Example 123, 1-(4-(1H-Pyrazol-4-yl)phenyl)-4-(2-hydroxypropan-2-yl)-3-(3-methoxybenzyl)imidazolidin-2-one] the figure was under 2 nM; with `COCC(c1cccc(OC)c1)N1CCN(c2ccc(-c3cn[nH]c3)cc2)C1=O` (single isomer, unassigned) [Example 157, 1-(4-(1H-Pyrazol-4-yl)phenyl)-3-(2-methoxy-1-(3-methoxyphenyl)ethyl)imidazolidin-2-one], 200 to 2000 nM. For `COc1ccc(F)c(Cn2ccn(-c3ccc(-c4cn[nH]c4)c(OC)n3)c2=O)c1` [Example 373, 1-(2-fluoro-5-methoxybenzyl)-3-(6-methoxy-5-(1H-pyrazol-4-yl)pyridin-2-yl)-1H-imidazol-2(3H)-one], the IC50 was under 2 nM.

As to `O=c1n(Cc2cc(F)cc(OCC3CC3)c2)ccn1-c1ccc(-c2cn[nH]c2)cc1` [Example 396, 1-(4-(1H-pyrazol-4-yl)phenyl)-3-(3-(cyclopropylmethoxy)-5-fluorobenzyl)-1H-imidazol-2(3H)-one], the 50% inhibitory concentration (IC50) was 20.1 to 200 nM.

In the case of `COc1ccc(F)c(Cn2ccn(-c3ccc(-c4cn[nH]c4)cc3)c2=O)c1` [Example 338, 1-(4-(1H-pyrazol-4-yl)phenyl)-3-(2-fluoro-5-methoxybenzyl)-1H-imidazol-2(3H)-one], the IC50 lay within 20.1 to 200 nM.
